Target: T1, full-length human PKCι (Homo sapiens, UniProt P41743)
T1 construct: Recombinant, full-length human PKCι expressed in Sf21 insect cells is also commercially available; purchased EMD Millipore; host or cells: Sf21 insect cells (baculovirus)
T1 sequence (P41743 1-596): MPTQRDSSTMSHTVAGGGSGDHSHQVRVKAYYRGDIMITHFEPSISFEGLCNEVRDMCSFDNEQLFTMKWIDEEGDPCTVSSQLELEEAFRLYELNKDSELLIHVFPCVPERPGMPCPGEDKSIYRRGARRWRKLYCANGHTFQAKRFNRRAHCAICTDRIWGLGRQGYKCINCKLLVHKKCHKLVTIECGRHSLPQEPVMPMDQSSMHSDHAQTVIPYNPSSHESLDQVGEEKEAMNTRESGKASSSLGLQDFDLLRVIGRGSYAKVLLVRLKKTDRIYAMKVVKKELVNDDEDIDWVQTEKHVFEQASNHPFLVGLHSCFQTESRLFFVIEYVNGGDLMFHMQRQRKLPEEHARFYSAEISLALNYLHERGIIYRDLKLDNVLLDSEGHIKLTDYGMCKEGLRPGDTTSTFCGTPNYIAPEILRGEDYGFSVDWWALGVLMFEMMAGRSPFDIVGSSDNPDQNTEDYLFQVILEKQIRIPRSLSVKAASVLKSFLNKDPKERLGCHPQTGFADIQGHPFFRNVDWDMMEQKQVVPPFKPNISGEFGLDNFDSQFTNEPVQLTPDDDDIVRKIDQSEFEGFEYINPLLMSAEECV
Assay: PKCι IC50 IMAP fluorescence polarisation assay, full-length enzyme, 150 μM ATP
Format: biochemical
Conditions: read-out: IC50 in IMAP assay against full length PKCi at 150 μM ATP
In short: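 IMAP fluorescence polarisation kinase assay: 15 pM baculovirus-expressed human PKCiota with 100 nM FAM-pseudosubstrate peptide and 150 μM ATP, 1 h at 25 °C. IMAP detection reagent then 2 h at 25 °C before FP measurement. Inhibition referenced to no-compound and no-enzyme controls for IC50 fitting.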

Row | Compound | IC50 [nM]
1 | c1ccc2c(c1)oc1nccc(-c3nc(N4CCNCC4)c4c(C5CC5)cncc4n3)c12 [Example 373, 4-(5-Cyclopropyl-4-piperazin-1-yl-pyrido[3,4-d]pyrimidin-2-yl)-benzofuro[2,3-b]pyridine] | 1000 to 10000
2 | c1ccc2c(c1)oc1nccc(-c3nc(NC4CCNCC4)c4c(C5CC5)cncc4n3)c12 [Example 374, 2-(benzofuro[2,3-b]pyridin-4-yl)-5-cyclopropyl-N-(4-piperidyl)pyrido[3,4-d]pyrimidin-4-amine] | 1000 to 10000
3 | CN(c1nc(-c2ccnc3[nH]c4ccccc4c23)nc2cncc(C3CCC3)c12)C1CC2NC(=O)OC2C1 (centres unmarked) [Example 375, 5-{[5-Cyclobutyl-2-(9H-pyrido[2,3-b]indol-4-yl)-pyrido[3,4-d]pyrimidin-4-yl]-methyl-amino}-hexahydro-cyclopentoxazol-2-one] | 100 to 1000
4 | O=C1NC2CC(Nc3nc(-c4ccnc5[nH]c6ccccc6c45)nc4cncc(C5CCC5)c34)CC2O1 (centres unmarked) [Example 376, 5-[5-Cyclobutyl-2-(9H-pyrido[2,3-b]indol-4-yl)-pyrido[3,4-d]pyrimidin-4-ylamino]-hexahydro-cyclopentoxazol-2-one] | 1000 to 10000
5 | NC(=O)C1CC(Nc2nc(-c3ccnc4[nH]c5ccccc5c34)nc3cncc(C4CCC4)c23)CC1N (centres unmarked) [Example 377, 2-amino-4-[[5-cyclobutyl-2-(9H-pyrido[2,3-b]indol-4-yl)pyrido[3,4-d]pyrimidin-4-yl]amino]cyclopentane carboxamide] | 100 to 1000
6 | CC1(C)CNCC[C@@H]1Nc1nc(-c2ccnc(Nc3cc(F)ccn3)c2)nc2cncc(C3CCC3)c12 [Example 382, {5-Cyclobutyl-2-[2-(4-fluoro-pyridin-2-ylamino)-pyridin-4-yl]-pyrido[3,4-d]pyrimidin-4-yl}-((S)-3,3-dimethyl-piperidin-4-yl)-amine] | < 100
7 | COc1cccc(Nc2cc(-c3nc(N[C@H]4CCNCC4(C)C)c4c(C5CCC5)cncc4n3)ccn2)n1 [Example 383, {5-Cyclobutyl-2-[2-(6-methoxy-pyridin-2-ylamino)-pyridin-4-yl]-pyrido[3,4-d]pyrimidin-4-yl}-((S)-3,3-dimcthyl-piperidin-4-yl)-amine] | < 100
8 | CN(c1nc(-c2ccnc3[nH]c(-c4ncccc4F)cc23)nc2cncc(C3CC3)c12)[C@H]1CCNCC1(C)C [Example 384, {5-Cyclopropyl-2-[2-(3-fluoro-pyridin-2-yl)-1H-pyrrolo[2,3-b]pyridin-4-yl]-pyrido[3,4-d]pyrimidin-4-yl}-((S)-3,3-dimethyl-piperidin-4-yl)-methyl-amine] | < 100
9 | CN(c1nc(-c2ccnc3[nH]c(-c4cccnc4)cc23)nc2cncc(C3CC3)c12)[C@H]1CCNCC1(C)C [Example 385, [5-Cyclopropyl-2-(2-pyridin-3-yl-1H-pyrrolo[2,3-b]pyridin-4-yl)-pyrido[3,4-d]pyrimidin-4-yl]-((S)-3,3-dimethyl-piperidin-4-yl)-methyl-amine] | < 100
10 | CC1(C)CNCC[C@@H]1Nc1nc(-c2ccnc(Nc3ccccn3)c2)nc2cncc(C3CCC3)c12 [Example 388, {5-Cyclobutyl-2-[2-(pyridin-2-ylamino)-pyridin-4-yl]-pyrido[3,4-d]pyrimidin-4-yl}-((S)-3,3-dimethyl-piperidin-4-yl)-amine] | < 100
11 | CC1(C)CNCC[C@@H]1Nc1nc(-c2ccnc(Nc3ccc(F)cn3)c2)nc2cncc(C3CCC3)c12 [Example 389, {5-Cyclobutyl-2-[2-(5-fluoropyridin-2-ylamino)-pyridin-4-yl]-pyrido[3,4-d]pyrimidin-4-yl}-((S)-3,3-dimethyl-piperidin-4-yl)-amine] | < 100
12 | CC1(C)CNCC[C@@H]1Nc1nc(-c2ccnc(Nc3ncccc3F)c2)nc2cncc(C3CC3)c12 [Example 390, {5-Cyclopropyl-2-[2-(3-fluoro-pyridin-2-ylamino)-pyridin-4-yl]-pyrido[3,4-d]pyrimidin-4-yl}-((S)-3,3-dimethyl-piperidin-4-yl)-amine] | < 100
13 | CC1(C)CNCC[C@@H]1Nc1nc(-c2ccnc(Nc3ncc(F)cc3F)c2)nc2cncc(C3CC3)c12 [Example 391, {5-Cyclopropyl-2-[2-(3,5-difluoro-pyridin-2-ylamino)-pyridin-4-yl]-pyrido[3,4-d]pyrimidin-4-yl}-((S)-3,3-dimethyl-piperidin-4-yl)-amine] | < 100

Next, values leading:

Row | IC50 [nM] | Compound
14 | < 100 | CC1(C)CNCC[C@@H]1Nc1nc(-c2ccnc3[nH]c(C(=O)N4CCCCCC4)cc23)nc2cncc(C3CC3)c12 [Example 363, Azepan-1-yl-{4-[5-cyclopropyl-4-((S)-3,3-dimethyl-piperidin-4-ylamino)-pyrido[3,4-d]pyrimidin-2-yl]-1H-pyrrolo[2,3-b]pyridin-2-yl}-methanone]
15 | < 100 | Cc1cnc(F)c(-c2cc3c(-c4nc(N[C@H]5CCNCC5(C)C)c5c(C6CC6)cncc5n4)ccnc3[nH]2)c1 [Example 364, {5-Cyclopropyl-2-[2-(2-fluoro-5-methyl-pyridin-3-yl)-1H-pyrrolo[2,3-b]pyridin-4-yl]-pyrido[3,4-d]pyrimidin-4-yl}-((S)-3,3-dimethyl-piperidin-4-yl)-amine]
16 | < 100 | CC1(C)CNCC[C@@H]1Nc1nc(-c2ccnc3[nH]c(-c4cncc(F)c4)cc23)nc2cncc(C3CC3)c12 [Example 365, {5-Cyclopropyl-2-[2-(5-fluoro-pyridin-3-yl)-1H-pyrrolo[2,3-b]pyridin-4-yl]-pyrido[3,4-d]pyrimidin-4-yl}-((S)-3,3-dimethyl-piperidin-4-yl)-amine]
17 | < 100 | CC1(C)CNCC[C@@H]1Nc1nc(-c2ccnc3[nH]c(C(=O)N4CCC4)cc23)nc2cncc(C3CC3)c12 [Example 366, Azetidin-1-yl-[4-[5-cyclopropyl-4-[[(4S)-3,3-dimethyl-4-piperidyl]amino]pyrido [3,4-d]pyrimidin-2-yl]-1H-pyrrolo[2,3-b]pyridin-2-yl]methanone]
18 | < 100 | CC1(C)CNCC[C@@H]1Nc1nc(-c2ccnc3[nH]c(-c4cccnc4)cc23)nc2cncc(C3CCC3)c12 [Example 367, [5-Cyclobutyl-2-(2-pyridin-3-yl-1H-pyrrolo[2,3-b]pyridin-4-yl)-pyrido[3,4-d]pyrimidin-4-yl]-((S)-3,3-dimethyl-piperidin-4-yl)-amine]
19 | < 100 | COc1ccc(Cl)c(-c2cc3c(-c4nc(N[C@H]5CCNCC5(C)C)c5c(C6CC6)cncc5n4)ccnc3[nH]2)c1 [Example 368, {2-[2-(2-Chloro-5-methoxy-phenyl)-1H-pyrrolo[2,3-b]pyridin-4-yl]-5-cyclopropyl-pyrido[3,4-d]pyrimidin-4-yl}-((S)-3,3-dimethyl-piperidin-4-yl)-amine]
20 | < 100 | c1cncc(-c2cc3c(-c4nc(N[C@H]5CCCNCC5)c5c(C6CC6)cncc5n4)ccnc3[nH]2)c1 [Example 369, (S)-Azepan-4-yl-[5-cyclopropyl-2-(2-pyridin-3-yl-1H-pyrrolo[2,3-b]pyridin-4-yl)-pyrido[3,4-d]pyrimidin-4-yl]-amine]
21 | < 100 | CC1(C)CNCC[C@@H]1Nc1nc(-c2ccnc3[nH]c(-c4cncc(F)c4)cc23)nc2cncc(C3CCC3)c12 [Example 370, {5-Cyclobutyl-2-[2-(5-fluoro-pyridin-3-yl)-1H-pyrrolo[2,3-b]pyridin-4-yl]-pyrido[3,4-d]pyrimidin-4-yl}-((S)-3,3-dimethyl-piperidin-4-yl)-amine]
22 | < 100 | CC1(C)CNCC[C@@H]1Nc1nc(-c2ccnc3[nH]c(-c4ccncc4)cc23)nc2cncc(C3CC3)c12 [Example 371, 5-Cyclopropyl-N-[(4S)-3,3-dimethyl-4-piperidyl]-2-[2-(4-pyridyl)-1H-pyrrolo[2,3-b]pyridin-4-yl]pyrido[3,4-d]pyrimidin-4-amine]
23 | < 100 | CC1(C)CNCC[C@@H]1Nc1nc(-c2ccnc3[nH]c(-c4cccnc4)cc23)nc2cncc(C(F)(F)F)c12 [Example 372, N-[(4S)-3,3-dimethyl-4-piperidyl]-2-[2-(3-pyridyl)-1H-pyrrolo[2,3-b]pyridin-4-yl]-5-(trifluoromethyl) pyrido[3,4-d]pyrimidin-4-amine]
24 | < 100 | CC1(C)CNCC[C@@H]1Nc1nc(-c2ccnc(Nc3ccc4ccccc4n3)c2)nc2cncc(C3CC3)c12 [Example 378, {5-Cyclopropyl-2-[2-(quinolin-2-ylamino)-pyridin-4-yl]-pyrido[3,4-d]pyrimidin-4-yl}-((S)-3,3-dimethyl-piperidin-4-yl)-amine]
25 | < 100 | CC1(C)CNCC[C@H]1Nc1nc(-c2ccnc(Nc3cc4ccccn4n3)c2)nc2cncc(C3CCC3)c12 [Example 379, {5-Cyclobutyl-2-[2-(pyrazolo[1,5-a]pyridin-2-ylamino)-pyridin-4-yl]-pyrido[3,4-d]pyrimidin-4-yl}-((R)-3,3-dimethyl-piperidin-4-yl)-amine]
26 | < 100 | CC1(C)CNCC[C@@H]1Nc1nc(-c2ccnc(Nc3cc4ccccn4n3)c2)nc2cncc(C3CCC3)c12 [Example 380, {5-Cyclobutyl-2-[2-(pyrazolo[1,5-a]pyridin-2-ylamino)-pyridin-4-yl]-pyrido[3,4-d]pyrimidin-4-yl}-((S)-3,3-dimethyl-piperidin-4-yl)-amine]
